Changes are numbered by the printed parent chain. Like-named read-outs stand apart in the source and are kept apart here.
Assays:
[1] = biological target: T1, purified wild type MGL (wt-MGLL 6H-11-313) (Homo sapiens, UniProt Q99685); assay: MGL enzyme activity assay (4MU-B cleavage), wild type MGL; assay type: biochemical; settings: 10 μM 4MU-B, 5 nM enzyme, 37° C., read-out: MGL wild type inh IC50
T1 construct: purified wild type MGL (wt-MGLL 6H-11-313)
T1 sequence (Q99685 1-303): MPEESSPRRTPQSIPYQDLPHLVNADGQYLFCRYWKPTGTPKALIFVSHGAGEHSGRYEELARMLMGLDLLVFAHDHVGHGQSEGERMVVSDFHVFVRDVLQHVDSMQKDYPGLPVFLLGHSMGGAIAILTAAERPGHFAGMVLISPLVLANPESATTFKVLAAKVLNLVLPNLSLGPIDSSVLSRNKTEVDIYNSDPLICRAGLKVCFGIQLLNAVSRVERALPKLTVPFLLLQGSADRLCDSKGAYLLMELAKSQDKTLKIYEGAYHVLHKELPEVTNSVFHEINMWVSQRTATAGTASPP
Outline: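 Enzyme (5 nM final) cleaved 4MU-B (10 μM final) in 20 mM PIPES pH 7.0 with 150 mM NaCl and 0.001% Tween 20. Compounds were tested at 17 to 0.0003 μM final. Fluorescence (ex 335/em 440 nm) was monitored at 37° C for 5 min, and IC50 was fitted from fractional activity versus inhibitor concentration.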

mutant MGL = biological target: T2, mutant MGL (Homo sapiens, UniProt Q99685, L169S/L176S); assay: MGL ThermoFluor assay - mutant; assay type: binding
T2 construct: purified mutant MGL (mut-MGLL 11-313 L179S L186S)
T2 sequence (Q99685 1-303 L169S/L176S): T1 sequence (Q99685 1-303) with L169S, L176S
Outline: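 Thermal shift binding with 0.07 mg/ml L169S/L176S MGL, 100 μM 1,8-ANS, 200 mM NaCl, 0.001% Tween-20, 50 mM PIPES pH 7.0. Heated 40–90 °C at 1 °C/min, fluorescence (em 500 nm) tracked to give Tm; Kd fitted from 11-point concentration–Tm response, qKd when stocks quantified by qNMR.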

[2] = 0.07 mg/ml mutant MGL, pH=7.0, read-out: MGL mutant ThermoFluor Kd
[3] = compound concentration measured by qNMR, read-out: MGL mutant ThermoFluor qKd (using qNMR conc.)

IC50 [1]	Kd (mutant MGL; [2])	Kd (mutant MGL; [3])	SMILES
< 5 nM	1 nM	1.3 nM	Cc1c(C(=O)N2CC(C3CCN(C(=O)c4nccs4)CC3)C2)sc2cc(C(F)(F)F)ccc12 [Cpd 20, 4-(1-{[3-Methyl-6-(trifluoromethyl)-1-benzothiophen-2-yl]carbonyl}azetidin-3-yl)-1-(1,3-thiazol-2-ylcarbonyl)piperidine]
6 nM	0.3 nM	1.2 nM	O=C(c1nccs1)N1CCC(C2CN(C(=O)c3sc4cc(C(F)(F)F)ccc4c3Cl)C2)CC1 [Cpd 29, 4-(1-{[3-Chloro-6-(trifluoromethyl)-1-benzothiophen-2-yl]carbonyl}azetidin-3-yl)-1-(1,3-thiazol-2-ylcarbonyl)piperidine]

From patent publication US8513423B2 (Janssen Pharmaceutica, NV, priority 2010, dated 2013)
